Key:
rats [1] = assay: Carrageenan-induced thermal hyperalgesia, VR1 antagonist and morphine in combination; assay type: in vivo, rat
Description: Briefly, a constant radiant heat source is applied the animals' plantar surface of either hind paw. The time to withdrawal (ie., the amount of time that heat is applied before the animal moves its paw), otherwise described as thermal threshold or latency, determines the animal's hind paw sensitivity to heat.
Rats received oral administration of 0.1 mg/kg VR1 antagonist ([2-(2,6-dimethyl-morpholin-4-ylmethyl)-7-(3-trifluoromethyl-pyridin-2-yl)-pyrido[3,2-d]pyrimidin-4-yl]-(4-trifluoromethyl-phenyl)-amine (cis)) or vehicle alone in a solution of 2% vitamin E (d-alpha tocopheryl polyethylene glycol 1000 succinate) in distilled water. One hour later, 100 μL of 1% carrageenan was injected in the intraplantar aspect of the left paw. 2 hours after carrageenan injection, the rats were treated subcutaneously with saline or 1 mg/kg of morphine sulfate in saline. One hour after subcutaneous treatment, each rat's thermal withdrawal latency (i.e., the amount of time that heat is applied before the animal moves its paw) was determined. This latency was compared with the latency determined for each rat on the day prior to the experiment (baseline day).
The data are presented in FIG. 4, expressed as a decrease in paw withdrawal latency (latency on test day—latency on baseline day).

rats [2] = assay: CFA-induced chronic inflammatory pain, mechanical allodynia (von Frey), tolerance to morphine; assay type: in vivo, rat; conditions: once per day for four days; for withdrawal threshold from a von Frey filament: Treatment Day 4, 1 hour after treatment, ANOVA and Fisher's PLSD
Description: A positive allodynic response consists of lifting the affected paw followed immediately by licking or shaking of the paw.

[3] = oral VR1 antagonist 0.3 mg/kg and subcutaneous morphine sulfate 3 mg/kg

## C[C@@H]1CN(Cc2nc(Nc3ccc(C(F)(F)F)cc3)c3ncc(-c4ncccc4C(F)(F)F)cc3n2)C[C@H](C)O1 [VR1 antagonist, [2-(2,6-dimethyl-morpholin-4-ylmethyl)-7-(3-trifluoromethyl-pyridin-2-yl)-pyrido[3,2-d]pyrimidin-4-yl]-(4-trifluoromethyl-phenyl)-amine (cis)]
Rats [1]; VR1 antagonist alone, 0.1 mg/kg oral, with s.c. saline, ANOVA, Fisher's PLSD
  decrease in thermal paw withdrawal latency (carrageenan-induced thermal hyperalgesia): statistically significant effect
Rats [1]; coadministration of 1 mg/kg morphine s.c. with VR1 antagonist 0.1 mg/kg oral
  decrease in thermal paw withdrawal latency (carrageenan-induced thermal hyperalgesia): greatest effect
Rats [2]; [3]
  tolerance to repeated morphine dosing: prevents tolerance to repeated morphine dosing
  withdrawal threshold from a von Frey filament: statistically significantly higher withdrawal thresholds than any other treatment group

## CN1CC[C@]23c4c5ccc(O)c4O[C@H]2[C@@H](O)C=C[C@H]3[C@H]1C5 [morphine, reference compound]
Rats [1]; 1 mg/kg morphine s.c. with oral vehicle, 1 hour after subcutaneous treatment, ANOVA, Fisher's PLSD
  decrease in thermal paw withdrawal latency (carrageenan-induced thermal hyperalgesia): ineffective in reversing carrageenan-induced thermal hyperalgesia
Rats [2]; oral vehicle and subcutaneous morphine sulfate 3 mg/kg
  withdrawal threshold from a von Frey filament: not significantly different from oral vehicle and subcutaneous vehicle controls
